Measured values reported in patent US9359358B2, “Cyclohexyl azetidine derivatives as JAK inhibitors” (Incyte Holdings Corporation, priority 2011, dated 2016).
Counter-ions that a name gives are not always drawn.

How the values were obtained:
[1] = target: T1, human JAK1 (Homo sapiens, UniProt P23458); test: In Vitro JAK Kinase Assay (HTRF, phosphorylation of a biotinylated peptide), JAK1; format: biochemical; settings: Table 4; catalytic domain a.a. 837-1142, assay of Example A
T1 construct: human JAK1 (a.a. 837-1142); His tag (N); made in house; host or cells: insect cells (baculovirus)
Procedure: (§1) The catalytic activity of JAK1, JAK2 or JAK3 was assayed by measuring the phosphorylation of a biotinylated peptide. The phosphorylated peptide was detected by homogenous time resolved fluorescence (HTRF). […] Reactions were carried out at room temperature for 1 hour and then stopped with 20 μL 45 mM EDTA, 300 nM SA-APC, 6 nM Eu-Py20 in assay buffer (Perkin Elmer, Boston, Mass.). Binding to the Europium labeled antibody took place for 40 minutes and HTRF signal was measured on a Fusion plate reader (Perkin Elmer, Boston, Mass.).

[2] = target: T2, human JAK2 (Homo sapiens, UniProt O60674); test: In Vitro JAK Kinase Assay (HTRF, phosphorylation of a biotinylated peptide), JAK2; format: biochemical; settings: Table 4; assay of Example A
T2 construct: JAK2 (a.a. 828-1132); His tag (N); made in house; host or cells: insect cells (baculovirus)
Procedure: as §1

T1 sequence (P23458 849-1154): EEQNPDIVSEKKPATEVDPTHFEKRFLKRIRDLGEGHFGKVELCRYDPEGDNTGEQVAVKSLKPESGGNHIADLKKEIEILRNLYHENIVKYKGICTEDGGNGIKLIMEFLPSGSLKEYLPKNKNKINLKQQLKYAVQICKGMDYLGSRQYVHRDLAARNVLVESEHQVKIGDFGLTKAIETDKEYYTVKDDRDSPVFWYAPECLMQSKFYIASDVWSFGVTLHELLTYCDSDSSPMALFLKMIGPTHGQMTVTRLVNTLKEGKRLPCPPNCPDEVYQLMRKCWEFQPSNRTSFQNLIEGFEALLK
T2 sequence (O60674 828-1132): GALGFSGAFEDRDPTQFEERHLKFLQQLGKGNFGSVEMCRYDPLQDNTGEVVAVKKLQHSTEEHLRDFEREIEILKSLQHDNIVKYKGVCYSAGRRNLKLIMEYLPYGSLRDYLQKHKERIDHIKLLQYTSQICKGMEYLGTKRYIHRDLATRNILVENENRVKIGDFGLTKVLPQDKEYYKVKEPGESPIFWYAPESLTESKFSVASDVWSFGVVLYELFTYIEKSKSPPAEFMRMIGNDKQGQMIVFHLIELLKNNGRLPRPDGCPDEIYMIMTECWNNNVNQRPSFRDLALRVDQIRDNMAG

SMILES: CCNCc1cc(O[C@H]2CC[C@@H](N3CC(CC#N)(n4cc(-c5ncnc6[nH]ccc56)cn4)C3)CC2)nc(C(F)(F)F)n1 [Example 5, {1-(cis-4-{[6-[(Ethylamino)methyl]-2-(trifluoromethyl)pyrimidin-4-yl]oxy}cyclohexyl)-3-[4-(7H-pyrrolo[2,3-d]pyrimidin-4-yl)-1H-pyrazol-1-yl]azetidin-3-yl}acetonitrile tris(trifluoroacetate)]
- IC50 [1]: < 10 nM
- JAK2/JAK1 IC50 ratio [2]: ≧10

SMILES: CC(C)NCc1cc(O[C@H]2CC[C@@H](N3CC(CC#N)(n4cc(-c5ncnc6[nH]ccc56)cn4)C3)CC2)nc(C(F)(F)F)n1.O=C(O)C(F)(F)F.O=C(O)C(F)(F)F.O=C(O)C(F)(F)F [Example 6, {1-(cis-4-{[6-[(isopropylamino)methyl]-2-(trifluoromethyl)pyrimidin-4-yl]oxy}cyclohexyl)-3-[4-(7H-pyrrolo[2,3-d]pyrimidin-4-yl)-1H-pyrazol-1-yl]azetidin-3-yl}acetonitrile tris(trifluoroacetate)]
- IC50 [1]: < 10 nM
- JAK2/JAK1 IC50 ratio [2]: ≧10

SMILES: N#CCC1(n2cc(-c3ncnc4[nH]ccc34)cn2)CN([C@H]2CC[C@@H](Oc3cc(CNC4CC4)nc(C(F)(F)F)n3)CC2)C1.O=C(O)C(F)(F)F.O=C(O)C(F)(F)F.O=C(O)C(F)(F)F [Example 7, {1-(cis-4-{[6-[(cyclopropylamino)methyl]-2-(trifluoromethyl)pyrimidin-4-yl]oxy}cyclohexyl)-3-[4-(7H-pyrrolo[2,3-d]pyrimidin-4-yl)-1H-pyrazol-1-yl]azetidin-3-yl}acetonitrile tris(trifluoroacetate)]
- IC50 [1]: < 10 nM
- JAK2/JAK1 IC50 ratio [2]: ≧10

SMILES: CCN(C)Cc1cc(O[C@H]2CC[C@@H](N3CC(CC#N)(n4cc(-c5ncnc6[nH]ccc56)cn4)C3)CC2)nc(C(F)(F)F)n1.O=C(O)C(F)(F)F.O=C(O)C(F)(F)F.O=C(O)C(F)(F)F [Example 8, {1-(cis-4-{[6-{[ethyl(methyl)amino]methyl}-2-(trifluoromethyl)pyrimidin-4-yl]oxy}cyclohexyl)-3-[4-(7H-pyrrolo[2,3-d]pyrimidin-4-yl)-1H-pyrazol-1-yl]azetidin-3-yl}acetonitrile tris(trifluoroacetate)]
- IC50 [1]: < 10 nM
- JAK2/JAK1 IC50 ratio [2]: ≧10

SMILES: N#CCC1(n2cc(-c3ncnc4[nH]ccc34)cn2)CN([C@H]2CC[C@@H](Oc3cc(CNCC4CC4)nc(C(F)(F)F)n3)CC2)C1.O=C(O)C(F)(F)F.O=C(O)C(F)(F)F.O=C(O)C(F)(F)F [Example 9, {1-(cis-4-{[6-{[(cyclopropylmethyl)amino]methyl}-2-(trifluoromethyl)pyrimidin-4-yl]oxy}cyclohexyl)-3-[4-(7H-pyrrolo[2,3-d]pyrimidin-4-yl)-1H-pyrazol-1-yl]azetidin-3-yl}acetonitrile tris(trifluoroacetate)]
- IC50 [1]: < 10 nM
- JAK2/JAK1 IC50 ratio [2]: ≧10

SMILES: N#CCC1(n2cc(-c3ncnc4[nH]ccc34)cn2)CN([C@H]2CC[C@@H](Oc3cc(CNC4CCC4)nc(C(F)(F)F)n3)CC2)C1.O=C(O)C(F)(F)F.O=C(O)C(F)(F)F.O=C(O)C(F)(F)F [Example 10, {1-(cis-4-{[6-[(cyclobutylamino)methyl]-2-(trifluoromethyl)pyrimidin-4-yl]oxy}cyclohexyl)-3-[4-(7H-pyrrolo[2,3-d]pyrimidin-4-yl)-1H-pyrazol-1-yl]azetidin-3-yl}acetonitrile tris(trifluoroacetate)]
- IC50 [1]: < 10 nM
- JAK2/JAK1 IC50 ratio [2]: ≧10

SMILES: N#CCC1(n2cc(-c3ncnc4[nH]ccc34)cn2)CN([C@H]2CC[C@@H](Oc3cc(CNCCO)nc(C(F)(F)F)n3)CC2)C1 [Example 11, {1-(cis-4-{[6-{[(2-hydroxyethyl)amino]methyl}-2-(trifluoromethyl)pyrimidin-4-yl]oxy}cyclohexyl)-3-[4-(7H-pyrrolo[2,3-d]pyrimidin-4-yl)-1H-pyrazol-1-yl]azetidin-3-yl}acetonitrile tris(trifluoroacetate) (salt)]
- IC50 [1]: < 10 nM
- JAK2/JAK1 IC50 ratio [2]: ≧10

SMILES: CN(CCO)Cc1cc(O[C@H]2CC[C@@H](N3CC(CC#N)(n4cc(-c5ncnc6[nH]ccc56)cn4)C3)CC2)nc(C(F)(F)F)n1 [Example 12, {1-(cis-4-{[6-{[(2-hydroxyethyl)(methyl)amino]methyl}-2-(trifluoromethyl)pyrimidin-4-yl]oxy}cyclohexyl)-3-[4-(7H-pyrrolo[2,3-d]pyrimidin-4-yl)-1H-pyrazol-1-yl]azetidin-3-yl}acetonitrile tris(trifluoroacetate) (salt)]
- IC50 [1]: < 10 nM
- JAK2/JAK1 IC50 ratio [2]: ≧10

SMILES: CCN(CCO)Cc1cc(O[C@H]2CC[C@@H](N3CC(CC#N)(n4cc(-c5ncnc6[nH]ccc56)cn4)C3)CC2)nc(C(F)(F)F)n1 [Example 13, {1-(cis-4-{[6-{[ethyl(2-hydroxyethyl)amino]methyl}-2-(trifluoromethyl)pyrimidin-4-yl]oxy}cyclohexyl)-3-[4-(7H-pyrrolo[2,3-d]pyrimidin-4-yl)-1H-pyrazol-1-yl]azetidin-3-yl}acetonitrile tris(trifluoroacetate) (salt)]
- IC50 [1]: < 10 nM
- JAK2/JAK1 IC50 ratio [2]: ≧10

SMILES: N#CCC1(n2cc(-c3ncnc4[nH]ccc34)cn2)CN([C@H]2CC[C@@H](Oc3cc(CNCC(F)(F)F)nc(C(F)(F)F)n3)CC2)C1.O=C(O)C(F)(F)F.O=C(O)C(F)(F)F.O=C(O)C(F)(F)F [Example 14, [3-[4-(7H-pyrrolo[2,3-d]pyrimidin-4-yl)-1H-pyrazol-1-yl]-1-(cis-4-{[6-{[(2,2,2-trifluoroethyl)amino]methyl}-2-(trifluoromethyl)pyrimidin-4-yl]oxy}cyclohexyl)azetidin-3-yl]acetonitrile tris(trifluoroacetate)]
- IC50 [1]: < 10 nM
- JAK2/JAK1 IC50 ratio [2]: ≧10

SMILES: N#CCC1(n2cc(-c3ncnc4[nH]ccc34)cn2)CN([C@H]2CC[C@@H](Oc3cc(CNCCF)nc(C(F)(F)F)n3)CC2)C1.O=C(O)C(F)(F)F.O=C(O)C(F)(F)F.O=C(O)C(F)(F)F [Example 15, {1-(cis-4-{[6-{[(2-fluoroethyl)amino]methyl}-2-(trifluoromethyl)pyrimidin-4-yl]oxy}cyclohexyl)-3-[4-(7H-pyrrolo[2,3-d]pyrimidin-4-yl)-1H-pyrazol-1-yl]azetidin-3-yl}acetonitrile tris(trifluoroacetate)]
- IC50 [1]: < 10 nM
- JAK2/JAK1 IC50 ratio [2]: ≧10

SMILES: C[C@@H](CO)NCc1cc(O[C@H]2CC[C@@H](N3CC(CC#N)(n4cc(-c5ncnc6[nH]ccc56)cn4)C3)CC2)nc(C(F)(F)F)n1 [Example 16, {1-(cis-4-{[6-({[(1S)-2-hydroxy-1-methylethyl]amino}methyl)-2-(trifluoromethyl)pyrimidin-4-yl]oxy}cyclohexyl)-3-[4-(7H-pyrrolo[2,3-d]pyrimidin-4-yl)-1H-pyrazol-1-yl]azetidin-3-yl}acetonitrile Ex 1 tris(trifluoroacetate) (salt)]
- IC50 [1]: < 10 nM
- JAK2/JAK1 IC50 ratio [2]: ≧10

SMILES: C[C@H](CO)NCc1cc(O[C@H]2CC[C@@H](N3CC(CC#N)(n4cc(-c5ncnc6[nH]ccc56)cn4)C3)CC2)nc(C(F)(F)F)n1 [Example 17, {1-(cis-4-{[6-({[(1R)-2-hydroxy-1-methylethyl]amino}methyl)-2-(trifluoromethyl)pyrimidin-4-yl]oxy}cyclohexyl)-3-[4-(7H-pyrrolo[2,3-d]pyrimidin-4-yl)-1H-pyrazol-1-yl]azetidin-3-yl}acetonitrile tris(trifluoroacetate) (salt)]
- IC50 [1]: < 10 nM
- JAK2/JAK1 IC50 ratio [2]: ≧10

SMILES: C[C@@H](O)CNCc1cc(O[C@H]2CC[C@@H](N3CC(CC#N)(n4cc(-c5ncnc6[nH]ccc56)cn4)C3)CC2)nc(C(F)(F)F)n1 [Example 18, {1-(cis-4-{[6-({[(2S)-2-hydroxypropyl]amino}methyl)-2-(trifluoromethyl)pyrimidin-4-yl]oxy}cyclohexyl)-3-[4-(7H-pyrrolo[2,3-d]pyrimidin-4-yl)-1H-pyrazol-1-yl]azetidin-3-yl}acetonitrile tris(trifluoroacetate) (salt)]
- IC50 [1]: < 10 nM
- JAK2/JAK1 IC50 ratio [2]: ≧10

SMILES: C[C@H](O)CNCc1cc(O[C@H]2CC[C@@H](N3CC(CC#N)(n4cc(-c5ncnc6[nH]ccc56)cn4)C3)CC2)nc(C(F)(F)F)n1 [Example 19, {1-(cis-4-{[6-({[(2R)-2-hydroxypropyl]amino}methyl)-2-(trifluoromethyl)pyrimidin-4-yl]oxy}cyclohexyl)-3-[4-(7H-pyrrolo[2,3-d]pyrimidin-4-yl)-1H-pyrazol-1-yl]azetidin-3-yl}acetonitrile tris(trifluoroacetate) (salt)]
- IC50 [1]: < 10 nM
- JAK2/JAK1 IC50 ratio [2]: ≧10

SMILES: CC(C)(O)CNCc1cc(O[C@H]2CC[C@@H](N3CC(CC#N)(n4cc(-c5ncnc6[nH]ccc56)cn4)C3)CC2)nc(C(F)(F)F)n1 [Example 20, {1-(cis-4-{[6-{[(2-hydroxy-2-methylpropyl)amino]methyl}-2-(trifluoromethyl)pyrimidin-4-yl]oxy}cyclohexyl)-3-[4-(7H-pyrrolo[2,3-d]pyrimidin-4-yl)-1H-pyrazol-1-yl]azetidin-3-yl}acetonitrile tris(trifluoroacetate) (salt)]
- IC50 [1]: < 10 nM
- JAK2/JAK1 IC50 ratio [2]: ≧10

SMILES: N#CCC1(n2cc(-c3ncnc4[nH]ccc34)cn2)CN([C@H]2CC[C@@H](Oc3cc(CNCCCO)nc(C(F)(F)F)n3)CC2)C1 [Example 21, {1-(cis-4-{[6-{[(3-hydroxypropyl)amino]methyl}-2-(trifluoromethyl)pyrimidin-4-yl]oxy}cyclohexyl)-3-[4-(7H-pyrrolo[2,3-d]pyrimidin-4-yl)-1H-pyrazol-1-yl]azetidin-3-yl}acetonitrile tris(trifluoroacetate) (salt)]
- IC50 [1]: < 10 nM
- JAK2/JAK1 IC50 ratio [2]: ≧10
